Reference: patent publication US20230127304A1, “NEW INHIBITORS FOR THE KEAP1-NRF2 PROTEIN-PROTEIN INTERACTION” (PRESIDENT AND FELLOWS OF HARVARD COLLEGE, priority 2020, published 2023)
“Also recorded” adds a separate entry of the source. Read-outs that look alike come from different tables or passages of the source.

Key:
[1] = Dynamic light scattering (DLS) aggregation; assay type: physicochemical; conditions: 20 μM compound, triplicates average
Experimental: To test the potential aggregation of hits we used DLS experiments. The experiments were performed on a ZS90 Zetasizer instrument (Malvern Panalytical, UK). Measurements were done in triplicate with 10 scans per run (100 s). […] The 20 μM working solution was made from a 1 mM stock of the compound in DMSO. The data was analysed by the built-in software. Compounds were classified as aggregated when the radius of the measured particles was above the minimum colloidal aggregate size (for small molecules) of 50 nm^39.

[2] = test system: NQO1; test: NQO1 assay; assay type: cell-based; conditions: Hepa1c1c7 cells, 48 h; for specific activity of NQO1: 0 uM = 1
Experimental: In this study, the inventors used a […] assay to quantitate the NQO1 levels. […] Specifically, Hepa1c1c7 cells were exposed in 8 replicates to a vehicle ([…]) or 8 serial dilutions of each compound for 48 h. Cells were then lysed and the specific activity of NQO1 was determined using menadione as a substrate.

[3] = NMR solubility assay; assay type: physicochemical; conditions: 5 μM to 30 μM, PBS buffer, pH 7.4
[4] = target: T1, NRF2-KEAP1 interaction (Mus musculus, UniProt Q9Z2X8); test: Fluorescence polarization (FP) Level-2 NRF2 peptide displacement; assay type: binding; conditions: for FP Assay: ability to displace the NRF2-peptide
T1 construct: mouse KEAP1 Kelch domain (residues 322-624); made in house; host or cells: E. coli BL21(DE3); peptide purchased from GenScript USA Inc
T1 sequence (Q9Z2X8 322-624): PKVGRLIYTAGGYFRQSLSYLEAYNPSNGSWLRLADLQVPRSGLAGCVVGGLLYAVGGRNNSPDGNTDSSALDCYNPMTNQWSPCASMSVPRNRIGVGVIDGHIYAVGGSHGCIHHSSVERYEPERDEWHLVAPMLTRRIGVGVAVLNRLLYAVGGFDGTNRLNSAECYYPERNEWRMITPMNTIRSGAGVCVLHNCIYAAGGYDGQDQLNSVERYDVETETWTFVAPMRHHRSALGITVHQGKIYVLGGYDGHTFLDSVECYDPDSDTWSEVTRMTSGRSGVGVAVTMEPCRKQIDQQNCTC
Experimental: The measurements were carried out in triplicate, and the three data points for each concentration averaged. IC50 values were determined by fitting the averaged data points to a four parameter logistic curve using the non-linear least squares method provided by the SciPy library for Python^33. The standard error (see Table 5) on the IC50 was computed by taking the square root of the diagonal of the parameter covariant matrix.

[5] = target: T1, NRF2-KEAP1 interaction; test: BLI displacement assay; assay type: binding; conditions: ability to displace the NRF2-peptide
Experimental: Bio-layer interferometry binding and displacement assays: NRF2-KEAP1 binding BLI experiments were performed on an Octet RED384 (ForteBio, Menlo Park, Calif., USA) using streptavidin-coated Dip and Read Biosensors (ForteBio) and 384 well plates with 120 μL volume. […] To test for nonspecific binding of GST-KEAP1 protein, reference tips were incubated in buffer alone. […] After measuring association, tips were moved to wells containing buffer, and dissociation was measured for 5 minutes. The data were processed and analysed using the Octet data analysis software version 11.0 (ForteBio, Inc., Menlo Park, Calif., USA). The association-dissociation curve for each concentration was fitted using a 1:1 model given by the equations
Compound screening by BLI displacement assay: The BLI displacement assays were setup as described above. […] The compounds were used at concentrations of […], and pre-incubated with GST-KEAP1 protein. The association phase was measured in the well containing compound with GST-KEAP1 protein for 10 minutes, and followed by a dissociation phase in buffer for 5 minutes. The inhibition percentage was the average BLI signal in the last 50 seconds of the dissociation phase, normalized against the condition of GST-KEAP1 protein in the absence of compound.

[6] = target: T2, GST-KEAP1 (Mus musculus, UniProt Q9Z2X8); test: SPR Level-3 steady-state binding
T2 construct: mouse KEAP1 Kelch domain (residues 322-624); made in house; host or cells: E. coli BL21(DE3)
T2 sequence (Q9Z2X8 322-624): as above
Excerpt: Req=(Rmax*C)/(Kd+C)+b, (1)
The biphasic binding model is given by the equation
Req=(Rmax,1*C)/(Kd,1+C)+Rmax,2*C/(Kd,2+C)+b, (2)

[7] = target: T3, KEAP1 (Mus musculus, UniProt Q9Z2X8); test: Ligand-detected NMR (DLB, STD, CPMG); assay type: binding; conditions: 50 μM compound, 5 μM KEAP1 (2.5 μM for iKeap1 and iKeap2)
T3 construct: The cleaved mouse KEAP1 Kelch domain (residues 322-624) consists of 308 amino acids; GST (N, cleaved yes); made in house; host or cells: E. coli BL21(DE3)
T3 sequence (Q9Z2X8 322-624): as above
Experimental: Data were analysed and visualized in Matlab (MathWorks, MA).

[8] = SPR Level-3, independent experiment 2, compounds marked * fitted with biphasic binding model, read-out: Kd, 2

Structure (SMILES)	Radius [1] [nm]	specific activity of NQO1 ([2]; 0.156 uM)	specific activity of NQO1 ([2]; 0.313 uM)	specific activity of NQO1 ([2]; 0.625 uM)	specific activity of NQO1 ([2]; 1.25 uM)	specific activity of NQO1 ([2]; 2.5 uM)	specific activity of NQO1 ([2]; 5 uM)	specific activity of NQO1 ([2]; 10 uM)	specific activity of NQO1 ([2]; 20 uM)	FP Assay [4]	BLI Assay [5]	binding to KEAP1 by ligand-detected NMR [7]	other results
Cc1ccc(S(=O)(=O)Oc2nc3nc4ccccc4nc3nc2OS(=O)(=O)c2ccc(C)cc2)cc1 [iKeap1]	2.306	1.19	1.28	1.41	1.68	2.1	2.66	3.53	4.18				CD [2]: 2 µM; aggregation in NMR solubility assay [3]: does not aggregate
O=C(O)c1ccc(NC2=C/C(=N\S(=O)(=O)c3ccc4ccccc4c3)c3ccccc3C2=O)cc1 [iKeap2]	12.492	1.13	1.2	1.33	1.49	1.91	2.75	6.08		active	able to displace the NRF2 peptide from KEAP1; also recorded: active	directly bind to KEAP1	CD [2]: 2.7 µM; IC50 ([4]; Level-2 FP, displacement of TAMRA-NRF2 peptide): 2.7 µM; Kd ([6]; SPR Level-3, average of three independent experiments, read-out: Kd average): 0.252 µM; Kd [6, 8]: 0.263 µM; Kd ([6]; SPR Level-3, independent experiment 3, compounds marked * fitted with biphasic binding model, read-out: Kd, 3): 0.334 µM; Kd ([6]; steady-state SPR, read-out: Kd (binding affinity to KEAP1)): 0.158 µM
O=C1OC(c2ccc([N+](=O)[O-])cc2)=N/C1=C\c1cccc2ccccc12 [iKeap4]		1.06	1.1	1.21	1.18	1.27	1.47	1.75	2.2				CD [2]: 15 µM
CC1=NN(c2ccccc2)C(=O)/C1=C\c1ccc(-c2cc(C(=O)O)ccc2Cl)o1 [iKeap7]	3.663	1.06	1.08	1.13	1.17	1.3	1.44	1.65	2.08	displacer of the NRF2 peptide; also recorded: active	displacer of the NRF2 peptide; also recorded: active	bind to KEAP1	CD [2]: 20 µM
O=C(Nc1cccc(-c2nnn[nH]2)c1)[C@@H]1C[C@H]2CCCC[C@H]2N1C(=O)c1ccc2ccccc2c1 [iKeap8]	3.340	1.07	1.04	1.06	1.11	1.08	1.11	1.16	1.21	able to displace the NRF2 peptide; also recorded: active	able to displace the NRF2 peptide; also recorded: active	bind to KEAP1	
O=S(=O)(N=C1CCCCCN1)c1ccc2sc(NS(=O)(=O)c3ccc4ccccc4c3)nc2c1 [iKeap9]	1.862									not able to effectively displace the NRF2 peptide	not able to effectively displace the NRF2 peptide	bind to KEAP1	Kd [6, 8]: 0.187 µM
O=S(=O)(O)c1ccc(/N=N\c2ccc(/N=N\c3ccc(O)c4cccc(S(=O)(=O)O)c34)cc2)cc1 [iKeap18]		1.09	1.09	1.19	1.18	1.29	1.39	1.58	1.79				CD ([2]; extrapolated (extp)): 40 (extp) uM
O=C1C[C@@H](c2ccc3ncccc3c2)c2c(cc(O)c3c(=O)cc(-c4ccc(O)cc4)oc23)O1 [iKeap22]	2.547									not active	displacer; also recorded: active	bind to KEAP1	
Cc1ccc(C)c(N2C(=O)c3ccc(-c4nc(-c5ccc6[nH]nnc6c5)no4)cc3C2=O)c1 [iKeap27]	2.643									not active	active		
O=S(=O)(Nc1nc2ccccc2nc1N1CCC[C@@H](c2nc3ccccc3[nH]2)C1)c1ccccc1 [iKeap33]	1.585									not active	active		
O=C(c1cc(-c2ccc3c(c2)OCCO3)nc2ccccc12)N1CCC(Cc2ccccc2)CC1 [iKeap41]	4.446									not active	active		
CC(=O)N/C(=C\c1ccc(Cc2nc3c([nH]2)C(=O)c2ccccc2C3=O)cc1)c1nc2c([nH]1)C(=O)c1ccccc1C2=O [iKeap48]	25.579									not active	active		
C[C@H]1CCc2c(sc3ncnc(N4CCO[C@@H](CN5C(=O)c6ccccc6C5=O)C4)c23)C1 [iKeap73]	2.510									not active	active		
C[C@@H]1Oc2ccc(C(=O)C3CCN(C(=O)[C@H]4C[C@H]4c4cccc5ccccc45)CC3)cc2NC1=O [iKeap74]	3.034									not active	active		
Cc1cccn2c(=O)c3c(nc12)N1CCCCC[C@H]1[C@]1(C3)C(=O)N(Cc2ccccc2Cl)C(=O)N=C1O [iKeap75]	3.612									not active	active		
